One assay has as its target WRN helicase (Homo sapiens (Human), UniProt Q14191). As to the kind of experiment: In vitro enzymatic activity assay on WRN helicase (DNA dependent ATPase assay, ADP-Glo). Type of assay: biochemical. The conditions noted are these: geometric means of at least 2 determinations; read-out: WRN ATPase Activity (IC50). In a few lines:
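DNA-dependent ATPase activity was measured by ADP-Glo luminescent ADP detection after a 30-min room-temperature reaction. The reaction contained 10 nM WRN (residues N517-P1238), 0.2 nM FLAP26 and 300 µM ATP at pH 7.5 with 2 mM MgCl2. Compounds were tested as 10-point half-log series in duplicate; IC50 values are geometric means from at least two independent experiments.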
In general terms: In ADP-Glo the light output rises with the ADP produced.

The next assay concerns SW48 cells. As to the kind of experiment: Proliferation assay SW48 (CellTiterGlo, 96 hours). The conditions noted are these: Homo sapiens, SW48, read-out: Proliferation Assay SW48 (GI50). In general terms: In ATP-based viability assays light output follows the ATP content of the culture.
Another assay relates to DLD1-WRN-KO cells. The assay is described as follows: Proliferation assay DLD1-WRN-KO (CellTiterGlo, 96 hours; off-target effects). Conditions: Homo sapiens, read-out: Proliferation Assay DLD1-WRN-KO (GI50).

The structures appear in SMILES notation. pIC50: −log10 of the molar value. Some results are limits rather than exact numbers.

From patent US11878973B2, “Bicyclic compounds and their uses” (NOVARTIS AG, priority 2021, dated 2024) come the findings set out here.

WRN helicase, sequence (Q14191 517-1238): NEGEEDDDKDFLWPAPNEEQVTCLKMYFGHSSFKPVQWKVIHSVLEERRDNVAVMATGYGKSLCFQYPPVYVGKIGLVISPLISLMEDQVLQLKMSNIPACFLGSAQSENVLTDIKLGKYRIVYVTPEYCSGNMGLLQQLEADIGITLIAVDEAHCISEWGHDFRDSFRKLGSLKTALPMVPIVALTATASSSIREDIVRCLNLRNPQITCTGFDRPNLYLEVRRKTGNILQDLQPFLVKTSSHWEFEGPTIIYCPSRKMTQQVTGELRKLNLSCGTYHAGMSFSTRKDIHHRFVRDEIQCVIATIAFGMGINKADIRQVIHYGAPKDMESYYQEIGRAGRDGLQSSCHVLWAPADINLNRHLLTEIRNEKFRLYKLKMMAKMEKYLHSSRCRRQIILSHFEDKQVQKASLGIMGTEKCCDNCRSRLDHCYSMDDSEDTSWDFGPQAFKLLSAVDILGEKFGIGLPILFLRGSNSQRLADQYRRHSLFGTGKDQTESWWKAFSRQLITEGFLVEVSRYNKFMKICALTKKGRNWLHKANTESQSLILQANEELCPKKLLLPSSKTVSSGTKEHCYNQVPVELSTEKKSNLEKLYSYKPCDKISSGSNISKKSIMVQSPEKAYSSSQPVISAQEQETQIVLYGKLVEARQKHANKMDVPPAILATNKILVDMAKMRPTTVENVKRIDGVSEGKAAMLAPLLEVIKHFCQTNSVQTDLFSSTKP
Method for DLD1-WRN-KO cells: The WRN-knockdown insensitive colon carcinoma cell line DLD-1 (RRID: CVCL_0248) was obtained from the Korean Cell Line Bank (KCLB), and used to generate a derivative in which the endogenous WRN gene copies were knocked out by CRISPR-mediated editing using standard CRISPR methods. The resulting cell line, DLD1-WRN—KO, was used to assess potential off-target compound effects.
All cells were maintained at 37° C. in a humidified 5% CO2 incubator.
For data analysis, the assay background signal that was determined in wells containing medium, but no cells, was subtracted from all other data points prior to further calculations. The extent of growth inhibition and potential cell kill was assessed by comparing the ATP levels (measured using CellTiterGlo, Promega) in compound-treated cells with those present at the time of compound addition. […] 100%, 0% and −100% signify absence of growth inhibition, growth stasis, and complete cell kill, respectively. Compound concentrations leading to half-maximal growth inhibition (G150) and residual cell viability at the highest tested compound concentration (Data (cmax), expressed in percent) were routinely calculated. Data analysis can also be carried out using commercially available software designed to derive IC50 values using 4-parameter fits (e.g. GraphPad Prism, XL fit). The reported GI50 values are the geometrical means of at least 2 independent replicates.

For `CCc1c(N2CCN(C(=O)c3ncnc(C)c3O)CC2)c(=O)n2nc(C3=CCOCC3)nc2n1CC(=O)Nc1cc(F)c(C=O)cc1C` [Example 54, 2-(2-(3,6-dihydro-2H-pyran-4-yl)-5-ethyl-6-(4-(5-hydroxy-6-methylpyrimidine-4-carbonyl)piperazin-1-yl)-7-oxo-[1,2,4]triazolo[1,5-a]pyrimidin-4(7H)-yl)-N-(5-fluoro-4-formyl-2-methylphenyl)acetamide], at WRN helicase, the pIC50 is 5.89. Also, the GI50 with SW48 cells is 6010 nM; with DLD1-WRN-KO cells, greater than 10000 nM.
The like results for `CCc1c(N2CCN(C(=O)c3ncccc3O)CC2)c(=O)n2nc(C3=CCCCO3)nc2n1CC(=O)Nc1ccc(C(F)(F)F)nc1C` [Example 55, 2-(2-(3,4-dihydro-2H-pyran-6-yl)-5-ethyl-6-(4-(3-hydroxypicolinoyl)piperazin-1-yl)-7-oxo-[1,2,4]triazolo[1,5-a]pyrimidin-4(7H)-yl)-N-(2-methyl-6-(trifluoromethyl)pyridin-3-yl)acetamide] were, in that order, 6.70, 100 nM and greater than 10000 nM.
The like results for `CCc1c(N2CCN(C(=O)c3nccc(Cl)c3O)CC2)c(=O)n2nc(C3=CCCCO3)nc2n1CC(=O)Nc1ccc(C(F)(F)F)nc1C` [Example 56, 2-(6-(4-(4-chloro-3-hydroxypicolinoyl)piperazin-1-yl)-2-(3,4-dihydro-2H-pyran-6-yl)-5-ethyl-7-oxo-[1,2,4]triazolo[1,5-a]pyrimidin-4(7H)-yl)-N-(2-methyl-6-(trifluoromethyl)pyridin-3-yl)acetamide] were, in that order, 6.80, 250 nM and greater than 10000 nM.
Consider `CCc1c(N2CCN(C(=O)c3ncnc(C)c3O)CC2)c(=O)n2nc(C3=CCOCC3)nc2n1CC(=O)Nc1ccc(C(F)(F)F)cc1C` [Example 57, 2-(2-(3,6-dihydro-2H-pyran-4-yl)-5-ethyl-6-(4-(5-hydroxy-6-methylpyrimidine-4-carbonyl)piperazin-1-yl)-7-oxo-[1,2,4]triazolo[1,5-a]pyrimidin-4(7H)-yl)-N-(2-methyl-4-(trifluoromethyl)phenyl)acetamide], for which the pIC50 on WRN helicase is 7.00. The GI50 in the assay with SW48 cells was 100 nM; with DLD1-WRN-KO cells, greater than 10000 nM.
On to `CCc1c(N2CCN(C(=O)c3ncccc3O)CC2)c(=O)n2nc(C3=CC(=O)OCC3)nc2n1CC(=O)Nc1ccc(C(F)(F)F)cc1C` [Example 60, 2-(5-ethyl-6-(4-(3-hydroxypicolinoyl)piperazin-1-yl)-7-oxo-2-(6-oxo-3,6-dihydro-2H-pyran-4-yl)-[1,2,4]triazolo[1,5-a]pyrimidin-4(7H)-yl)-N-(2-methyl-4-(trifluoromethyl)phenyl)acetamide], for which the negative logarithm of the IC50 (pIC50) at WRN helicase is 6.62. Further, the GI50 was 880 nM in the assay on SW48 cells and greater than 10000 nM with DLD1-WRN-KO cells.
The like results for `CCc1c(N2CCN(C(=O)c3nccc(Cl)c3O)CC2)c(=O)n2nc(C3=CCOCC3)nc2n1CC(=O)Nc1ccc(C(F)(F)F)cc1C` [Example 61, 2-(6-(4-(4-chloro-3-hydroxypicolinoyl)piperazin-1-yl)-2-(3,6-dihydro-2H-pyran-4-yl)-5-ethyl-7-oxo-[1,2,4]triazolo[1,5-a]pyrimidin-4(7H)-yl)-N-(2-methyl-4-(trifluoromethyl)phenyl)acetamide] were, in that order, 7.30, 50 nM and greater than 10000 nM.
Consider `CCc1c(N2CCN(C(=O)c3nc(C)cc(F)c3O)CC2)c(=O)n2nc(C3=CCOCC3)nc2n1CC(=O)Nc1ccc(C(F)(F)F)cc1C` [Example 62, 2-(2-(3,6-dihydro-2H-pyran-4-yl)-5-ethyl-6-(4-(4-fluoro-3-hydroxy-6-methylpicolinoyl)piperazin-1-yl)-7-oxo-[1,2,4]triazolo[1,5-a]pyrimidin-4(7H)-yl)-N-(2-methyl-4-(trifluoromethyl)phenyl)acetamide], for which the pIC50 on WRN helicase is 7.30. Further, the results for the GI50 in the assay on SW48 cells and in the assay on DLD1-WRN-KO cells were 50 nM and greater than 10000 nM, respectively.
As to `CCc1c(N2CCN(C(=O)c3nccc(F)c3O)CC2)c(=O)n2nc(C3=CCOCC3)nc2n1CC(=O)Nc1ccc(C(F)(F)F)cc1C` [Example 63, 2-(2-(3,6-dihydro-2H-pyran-4-yl)-5-ethyl-6-(4-(4-fluoro-3-hydroxypicolinoyl)piperazin-1-yl)-7-oxo-[1,2,4]triazolo[1,5-a]pyrimidin-4(7H)-yl)-N-(2-methyl-4-(trifluoromethyl)phenyl)acetamide], the pIC50 at WRN helicase is 6.96. Also, the values for the GI50 with SW48 cells and in the assay with DLD1-WRN-KO cells were 50 nM and greater than 10000 nM, respectively.
With `CCc1c(N2CCN(C(=O)c3ncncc3O)CC2)c(=O)n2nc(C3=CCOCC3)nc2n1CC(=O)Nc1ccc(C(F)(F)F)cc1C` [Example 64, 2-(2-(3,6-dihydro-2H-pyran-4-yl)-5-ethyl-6-(4-(5-hydroxypyrimidine-4-carbonyl)piperazin-1-yl)-7-oxo-[1,2,4]triazolo[1,5-a]pyrimidin-4(7H)-yl)-N-(2-methyl-4-(trifluoromethyl)phenyl)acetamide], the pIC50 at WRN helicase is 7.05. In addition, the results for the GI50 in the assay with SW48 cells and in the assay on DLD1-WRN-KO cells were 480 nM and greater than 10000 nM, respectively.
`CCc1c(N2CCN(C(=O)c3ncc(Cl)cc3O)CC2)c(=O)n2nc(C3=CCOCC3)nc2n1CC(=O)Nc1ccc(C(F)(F)F)cc1C` [Example 65, 2-(6-(4-(5-chloro-3-hydroxypicolinoyl)piperazin-1-yl)-2-(3,6-dihydro-2H-pyran-4-yl)-5-ethyl-7-oxo-[1,2,4]triazolo[1,5-a]pyrimidin-4(7H)-yl)-N-(2-methyl-4-(trifluoromethyl)phenyl)acetamide]: the pIC50 on WRN helicase is 7.30. For the same compound, the results for the GI50 in the assay with SW48 cells and in the assay on DLD1-WRN-KO cells were 80 nM and 7800 nM, respectively.
On the same counts, the results for `CCc1c(N2CCN(C(=O)c3nccc(C)c3O)CC2)c(=O)n2nc(C3=CCOCC3)nc2n1CC(=O)Nc1ccc(C(F)(F)F)cc1C` [Example 66, 2-(2-(3,6-dihydro-2H-pyran-4-yl)-5-ethyl-6-(4-(3-hydroxy-4-methylpicolinoyl)piperazin-1-yl)-7-oxo-[1,2,4]triazolo[1,5-a]pyrimidin-4(7H)-yl)-N-(2-methyl-4-(trifluoromethyl)phenyl)acetamide] are 7.40, 90 nM and greater than 10000 nM.
As to `CCc1c(N2CCN(C(=O)c3nccc(OC(F)(F)F)c3O)CC2)c(=O)n2nc(C3=CCOCC3)nc2n1CC(=O)Nc1ccc(C(F)(F)F)cc1C` [Example 67, 2-(2-(3,6-dihydro-2H-pyran-4-yl)-5-ethyl-6-(4-(3-hydroxy-4-(trifluoromethoxy)picolinoyl)piperazin-1-yl)-7-oxo-[1,2,4]triazolo[1,5-a]pyrimidin-4(7H)-yl)-N-(2-methyl-4-(trifluoromethyl)phenyl)acetamide], on WRN helicase, the pIC50 was 6.82. The values for the GI50 in the assay with SW48 cells and with DLD1-WRN-KO cells were 190 nM and greater than 10000 nM, respectively.
As to `CCc1c(N2CCN(C(=O)c3nc(C)ncc3O)CC2)c(=O)n2nc(C3=CCOCC3)nc2n1CC(=O)Nc1ccc(C(F)(F)F)cc1C` [Example 68, 2-(2-(3,6-dihydro-2H-pyran-4-yl)-5-ethyl-6-(4-(5-hydroxy-2-methylpyrimidine-4-carbonyl)piperazin-1-yl)-7-oxo-[1,2,4]triazolo[1,5-a]pyrimidin-4(7H)-yl)-N-(2-methyl-4-(trifluoromethyl)phenyl)acetamide], on WRN helicase, the pIC50 was 6.92. For the same compound, the GI50 is 270 nM in the assay on SW48 cells and greater than 10000 nM with DLD1-WRN-KO cells.
The like results for `CCc1c(N2CCN(C(=O)c3ncccc3O)CC2)c(=O)n2nc(C3=CCOCC3)nc2n1CC(=O)Nc1cc(Cl)c(C(F)(F)F)cc1C` [Example 69, N-(5-chloro-2-methyl-4-(trifluoromethyl)phenyl)-2-(2-(3,6-dihydro-2H-pyran-4-yl)-5-ethyl-6-(4-(3-hydroxypicolinoyl)piperazin-1-yl)-7-oxo-[1,2,4]triazolo[1,5-a]pyrimidin-4(7H)-yl)acetamide] were, in that order, 7.40, 30 nM and 6300 nM.
In the case of `CCc1c(N2CCN(C(=O)c3ncccc3O)CC2)c(=O)n2nc(C3=CCOCC3)nc2n1CC(=O)Nc1cc(F)c(C(F)(F)F)nc1C` [Example 70, 2-(2-(3,6-dihydro-2H-pyran-4-yl)-5-ethyl-6-(4-(3-hydroxypicolinoyl)piperazin-1-yl)-7-oxo-[1,2,4]triazolo[1,5-a]pyrimidin-4(7H)-yl)-N-(5-fluoro-2-methyl-6-(trifluoromethyl)pyridin-3-yl)acetamide], the pIC50 at WRN helicase is 7.00. Further, the GI50 in the assay on SW48 cells was 220 nM; in the assay with DLD1-WRN-KO cells it was greater than 10000 nM.
The like results for `CCc1c(N2CCN(C(=O)c3ncccc3O)[C@H](C)C2)c(=O)n2nc(C3=CCOCC3)nc2n1CC(=O)Nc1ccc(C(F)(F)F)cc1` [Example 71, (R)-2-(2-(3,6-dihydro-2H-pyran-4-yl)-5-ethyl-6-(4-(3-hydroxypicolinoyl)-3-methylpiperazin-1-yl)-7-oxo-[1,2,4]triazolo[1,5-a]pyrimidin-4(7H)-yl)-N-(4-(trifluoromethyl)phenyl)acetamide] were, in that order, 7.15, 60 nM and greater than 10000 nM.
Consider `CCc1c(N2CCN(C(=O)c3ncccc3O)CC2)c(=O)n2nc(C3=CCOCC3)nc2n1CC(=O)Nc1ccc(C(F)(F)F)cc1` [Example 72, 2-(2-(3,6-dihydro-2H-pyran-4-yl)-5-ethyl-6-(4-(3-hydroxypicolinoyl)piperazin-1-yl)-7-oxo-[1,2,4]triazolo[1,5-a]pyrimidin-4(7H)-yl)-N-(4-(trifluoromethyl)phenyl)acetamide], for which, at WRN helicase, the pIC50 was 7.30. Besides, the GI50 in the assay with SW48 cells was 50 nM; in the assay on DLD1-WRN-KO cells it was greater than 10000 nM.

In general, pIC50 refers to the negative decadic logarithm of the IC50, by convention in mol/L.
